Legend:
blackgrass [1] = test: Test Example 4: herbicidal effect by soil treatment (Table 19, symbol J); type: in vivo, blackgrass (Alopecurus myosuroides); conditions: amount of applied herbicide 320 g/ha
Procedure, shortened: (§1)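 Pre-emergence style soil spray: seeds under ~1.5 cm sterilized diluvial soil received a uniform coat of emulsion diluted to the predetermined herbicide amount. Greenhouse 25–30° C; readout at week three on previously defined criteria.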

windgrass [2] = test: Test Example 4: herbicidal effect by soil treatment (Table 19, symbol L); type: in vivo, windgrass (Apera spica-venti); conditions: amount of applied herbicide 320 g/ha
Procedure, shortened: as §1

redroot pigweed [3] = test: Test Example 4: herbicidal effect by soil treatment (Table 19, symbol N); type: in vivo, redroot pigweed (Amaranthus retroflexus); conditions: amount of applied herbicide 320 g/ha
Procedure, shortened: as §1

southern crabgrass [4] = test: Test Example 4: herbicidal effect by soil treatment (Table 19, symbol F); type: in vivo, southern crabgrass (Digitaria ciliaris); conditions: amount of applied herbicide 320 g/ha
Procedure, shortened: as §1

wild oat [5] = test: Test Example 5: herbicidal effect by foliage application, plastic box (Table 20, symbol I); type: in vivo, wild oat (Avena fatua); conditions: foliage application, 320 g/ha, three weeks after application
Procedure, shortened: (§2)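 Plants were sown into sterilized diluvial soil under about 1.5 cm cover and kept in a greenhouse at 25° C. to 30° C. Fourteen days on, foliage received an even spray of the diluted emulsion. Herbicidal or crop effect was judged three weeks afterwards.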

blackgrass [6] = test: Test Example 5: herbicidal effect by foliage application, plastic box (Table 20, symbol J); type: in vivo, blackgrass (Alopecurus myosuroides); conditions: foliage application, 320 g/ha, three weeks after application
Procedure, shortened: as §2

green foxtail [7] = test: Test Example 4: herbicidal effect by soil treatment (Table 19, symbol G); type: in vivo, green foxtail (Setaria viridis); conditions: amount of applied herbicide 320 g/ha
Procedure, shortened: as §1

rice flat sedge = test: Test Example 3: herbicidal effect by foliage application, Wagner pot (Table 18, symbol E); type: in vivo, rice flat sedge (Cyperus iria); conditions: 320 g/ha
Procedure, shortened: (§3)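 Plants were sown in alluvial soil held under 0.1–0.5 cm standing water and grown 14 days in a greenhouse at 25–30 °C. An emulsifiable formulation, water-diluted to the set dose, was then sprayed onto the foliage, and effects were scored three weeks later using previously defined criteria.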

persian speedwell = test: Test Example 5: herbicidal effect by foliage application, plastic box (Table 20, symbol R); type: in vivo, Persian speedwell (Veronica persica); conditions: foliage application, 320 g/ha, three weeks after application
Procedure, shortened: as §2

barnyard grass [8] = test: Test Example 4: herbicidal effect by soil treatment (Table 19, symbol H); type: in vivo, barnyard grass (Echinochloa crus-galli); conditions: amount of applied herbicide 320 g/ha
Procedure, shortened: as §1

lambsquarters [9] = test: Test Example 4: herbicidal effect by soil treatment (Table 19, symbol O); type: in vivo, lambsquarters (Chenopodium album); conditions: amount of applied herbicide 320 g/ha
Procedure, shortened: as §1

windgrass [10] = test: Test Example 5: herbicidal effect by foliage application, plastic box (Table 20, symbol L); type: in vivo, windgrass (Apera spica-venti); conditions: foliage application, 320 g/ha, three weeks after application
Procedure, shortened: as §2

Chinese sprangletop = test: Test Example 3: herbicidal effect by foliage application, Wagner pot (Table 18, symbol D); type: in vivo, chinese sprangletop (Leptochloa chinensis); conditions: 320 g/ha
Procedure, shortened: as §3

velvetleaf [11] = test: Test Example 5: herbicidal effect by foliage application, plastic box (Table 20, symbol M); type: in vivo, velvetleaf (Abutilon theophrasti); conditions: foliage application, 320 g/ha, three weeks after application
Procedure, shortened: as §2

lambsquarters [12] = test: Test Example 5: herbicidal effect by foliage application, plastic box (Table 20, symbol O); type: in vivo, lambsquarters (Chenopodium album); conditions: foliage application, 320 g/ha, three weeks after application
Procedure, shortened: as §2

redroot pigweed [13] = test: Test Example 5: herbicidal effect by foliage application, plastic box (Table 20, symbol N); type: in vivo, redroot pigweed (Amaranthus retroflexus); conditions: foliage application, 320 g/ha, three weeks after application
Procedure, shortened: as §2

velvetleaf [14] = test: Test Example 4: herbicidal effect by soil treatment (Table 19, symbol M); type: in vivo, velvetleaf (Abutilon theophrasti); conditions: amount of applied herbicide 320 g/ha
Procedure, shortened: as §1

Italian ryegrass [15] = test: Test Example 4: herbicidal effect by soil treatment (Table 19, symbol K); type: in vivo, Italian ryegrass (Lolium multiflorum); conditions: amount of applied herbicide 320 g/ha
Procedure, shortened: as §1

false cleavers = test: Test Example 4: herbicidal effect by soil treatment (Table 19, symbol Q); type: in vivo, false cleavers (Galium spurium); conditions: amount of applied herbicide 320 g/ha
Procedure, shortened: as §1

green foxtail [16] = test: Test Example 5: herbicidal effect by foliage application, plastic box (Table 20, symbol G); type: in vivo, green foxtail (Setaria viridis); conditions: foliage application, 320 g/ha, three weeks after application
Procedure, shortened: as §2

Italian ryegrass [17] = test: Test Example 5: herbicidal effect by foliage application, plastic box (Table 20, symbol K); type: in vivo, Italian ryegrass (Lolium multiflorum); conditions: foliage application, 320 g/ha, three weeks after application
Procedure, shortened: as §2

barnyard grass [18] = test: Test Example 5: herbicidal effect by foliage application, plastic box (Table 20, symbol H); type: in vivo, barnyard grass (Echinochloa crus-galli); conditions: foliage application, 320 g/ha, three weeks after application
Procedure, shortened: as §2

wild oat [19] = test: Test Example 4: herbicidal effect by soil treatment (Table 19, symbol I); type: in vivo, wild oat (Avena fatua); conditions: amount of applied herbicide 320 g/ha
Procedure, shortened: as §1

chickweed = test: Test Example 5: herbicidal effect by foliage application, plastic box (Table 20, symbol P); type: in vivo, common chickweed (Stellaria media); conditions: foliage application, 320 g/ha, three weeks after application
Procedure, shortened: as §2

southern crabgrass [20] = test: Test Example 5: herbicidal effect by foliage application, plastic box (Table 20, symbol F); type: in vivo, southern crabgrass (Digitaria ciliaris); conditions: foliage application, 320 g/ha, three weeks after application
Procedure, shortened: as §2

barnyard grass [21] = test: Test Example 3: herbicidal effect by foliage application, Wagner pot (Table 18, symbol H); type: in vivo, barnyard grass (Echinochloa crus-galli); conditions: 320 g/ha
Procedure, shortened: as §3

Compound: Cn1ncc(O)c(-c2c(-c3ccc(F)cc3)sc3ccccc23)c1=O [1-001]
- herbicidal effect rating, J: blackgrass (blackgrass [1]): 0 (Herbicidal rate of 5% or less (almost no effect))
- herbicidal effect rating, L: windgrass (windgrass [2]): 0 (Herbicidal rate of 5% or less (almost no effect))
- herbicidal effect rating, N: redroot pigweed (redroot pigweed [3]): 4 (Herbicidal rate of 70% or more and less than 90%)
- herbicidal effect rating, F: southern crabgrass (southern crabgrass [4]): 0 (Herbicidal rate of 5% or less (almost no effect))
- herbicidal effect grade, I: wild oat (wild oat [5]): 0 (Herbicidal rate of 5% or less (almost no effect))
- herbicidal effect grade, J: blackgrass (blackgrass [6]): 0 (Herbicidal rate of 5% or less (almost no effect))
- herbicidal effect rating, G: green foxtail (green foxtail [7]): 0 (Herbicidal rate of 5% or less (almost no effect))
- herbicidal effect on E (rice flat sedge), rating 0-5 (rice flat sedge): 5 (Herbicidal rate of 90% or more (almost completely withered))
- herbicidal effect grade, R: persian speedwell (persian speedwell): 3 (Herbicidal rate of 40% or more and less than 70%)
- herbicidal effect rating, H: barnyard grass (barnyard grass [8]): 0 (Herbicidal rate of 5% or less (almost no effect))
- herbicidal effect rating, O: lambsquarters (lambsquarters [9]): 0 (Herbicidal rate of 5% or less (almost no effect))
- herbicidal effect grade, L: windgrass (windgrass [10]): 0 (Herbicidal rate of 5% or less (almost no effect))
- herbicidal effect on D (Chinese sprangletop), rating 0-5 (Chinese sprangletop): 0 (Herbicidal rate of 5% or less (almost no effect))
- herbicidal effect grade, M: velvetleaf (velvetleaf [11]): 4 (Herbicidal rate of 70% or more and less than 90%)
- herbicidal effect grade, O: lambsquarters (lambsquarters [12]): 2 (Herbicidal rate of 20% or more and less than 40%)
- herbicidal effect grade, N: redroot pigweed (redroot pigweed [13]): 1 (Herbicidal rate of 5% or more and less than 20%)
- herbicidal effect rating, M: velvetleaf (velvetleaf [14]): 0 (Herbicidal rate of 5% or less (almost no effect))
- herbicidal effect rating, K: Italian ryegrass (Italian ryegrass [15]): 0 (Herbicidal rate of 5% or less (almost no effect))
- herbicidal effect rating, Q: false cleavers (false cleavers): 0 (Herbicidal rate of 5% or less (almost no effect))
- herbicidal effect grade, G: green foxtail (green foxtail [16]): 0 (Herbicidal rate of 5% or less (almost no effect))
- herbicidal effect grade, K: Italian ryegrass (Italian ryegrass [17]): 0 (Herbicidal rate of 5% or less (almost no effect))
- herbicidal effect grade, H: barnyard grass (barnyard grass [18]): 0 (Herbicidal rate of 5% or less (almost no effect))
- herbicidal effect rating, I: wild oat (wild oat [19]): 0 (Herbicidal rate of 5% or less (almost no effect))
- herbicidal effect grade, P: chickweed (chickweed): 5 (Herbicidal rate of 90% or more (almost completely withered))
- herbicidal effect grade, F: southern crabgrass (southern crabgrass [20]): 0 (Herbicidal rate of 5% or less (almost no effect))
- herbicidal effect on H (barnyard grass), rating 0-5 (barnyard grass [21]): 3 (Herbicidal rate of 40% or more and less than 70%)

From patent US20230085307A1, “PYRIDAZINONE COMPOUND AND HERBICIDE” (NISSAN CHEMICAL CORPORATION, priority 2019, published 2023)
